# Measurements from patent US6821986B2, “Amino acid derivatives and their use as medicines” (Societe de Conseils de Recherchet et E'Applications …, priority 2000, dated 2004).
# Tests used:
# [1] = test system: HT-22 cells; test: Protection of HT-22 cells from oxidation stress induced by glutamate (MTT viability); format: cell-based; conditions: Mus musculus, glutamate 5 mM, cell viability after 24 h by MTT
# Description: Study of the Effects on the Oxidation Stress Induced by Glutamate on Cells in Culture (HT-22).
# The inhibitory activity of the products of the invention is determined by measuring their ability to protect the cells of a mouse hippocampal line (HT-22) from an oxidation stress caused by glutamate. The biosynthesis of glutathione, an essential element of cell detoxification of free radicals, requires the active transport of cystine to the interior of the cell. The glutamate by opposing the penetration of cystine causes a reduction in the level of glutathione which leads to the death of the cell due to oxidation stress (Demerlé-Pallardy, C. et al., J. Neurochem. (2000) 74, 2079-2086; Murphy, T. H. et al., Neuron, (1989) 2: 1547-1558). The cells are cultured at 37° C. in a DMEM medium with 10% of foetal calf serum added to it. The tests are carried out in 96-well plates containing 5000 cells per well. The glutamate (5 mM) is added to the medium containing or not containing the products to be tested. The cell viability is tested after 24 h by the MTT method (Hansen, M. B. et al., J Immunol. Methods (1989), 119, 203-210). The ability of the compounds to protect the cells from the toxic action of the glutamate is estimated in EC50, calculated relative to the viability of cells which have not been subjected to the action of glutamate considered as 100% viability.
# [2] = biological target: T1, neuronal constitutive NO synthase (Rattus norvegicus, UniProt P29476); test: Effects on neuronal constitutive NO synthase of a rat's cerebellum ([3H]L-arginine to [3H]L-citrulline conversion); format: biochemical; conditions: rat cerebellum homogenate, conversion of [3H]L-arginine to [3H]L-citrulline, 15 min
# T1 construct: The reaction is initiated by adding 50 μl of homogenate; from tissue; host or cells: cerebellum of Sprague-Dawley rats (homogenate, centrifuged at 21000 g)
# Description: Study of the Effects on Neuronal Constitutive NO Synthase of a Rat's Cerebellum
# The inhibitory activity of the products of the invention is determined by measuring their effects on the conversion by NO synthase of [^3H]L-arginine to [^3H]L-citrulline according to the modified method of Bredt and Snyder (Proc. Natl. Acad. Sci. USA, (1990) 87: 682-685). The cerebellums of Sprague-Dawley rats (300 g-Charles River) are rapidly removed, dissected at 4° C. and homogenized in a volume of extraction buffer (HEPES 50 mM, EDTA 1 mM, pH 7.4, pepstatin A […], leupeptin […]). The homogenates are then centrifuged at 21000 g for 15 min at 4° C. Dosage is carried out in glass test tubes in which 100 μl of incubation buffer containing 100 mM of HEPES (pH 7.4), 2 mM of EDTA, 2.5 mM of CaCl2, 2 mM of dithiotreitol, 2 mM of reduced NADPH and 10 μg/ml of calmodulin are distributed. 25 μl of a solution containing 100 nM of [^3H]L-arginine (Specific activity: 56.4 Ci/mmole, Amersham) and 40 μM of non-radioactive L-arginine is added. The reaction is initiated by adding 50 μl of homogenate, the final volume being 200 μl (the missing 25 μl are either water or the tested product). […] After passing the samples through a 1 ml column of DOWEX resin, the radioactivity is quantified by a liquid scintillation spectrometer.
IC50 [2],SMILES,EC50 [1]
< 10 µM,"N=C(NCCC[C@H](N)C(=O)Nc1ccc(Nc2ccccc2)cc1)N[N+](=O)[O-] [Example 1, (2S)-2-amino-N-(4-anilinophenyl)-5-{[imino(2-oxido-2-oxohydrazino)methyl]amino}pentanamide]",< 25 µM
< 10 µM,"CN1CCc2cc(NC(=O)[C@@H](N)CCCNC(=N)N[N+](=O)[O-])ccc21 [Example 2, (2S)-2-amino-5-{[imino(2-oxido-2-oxohydrazino)methyl]amino}-N-(1-methyl-2,3-dihydro-1H-indol-5-yl)pentanamide]",< 25 µM
